Assay results: patent US8017629B2, “Compounds and uses thereof in modulating amyloid β” (Neurogenetic Pharmaceuticals, Inc., priority 2003, dated 2011)

What follows are compounds tested against BACE Enzyme (Homo sapiens, UniProt P56817) (assay: BACE Enzyme Potency (Table 12)). Conditions: Table 12; class symbols; read-out: BACE Enzyme Potency.
Chain of BACE Enzyme (P56817 46-501, species assumed): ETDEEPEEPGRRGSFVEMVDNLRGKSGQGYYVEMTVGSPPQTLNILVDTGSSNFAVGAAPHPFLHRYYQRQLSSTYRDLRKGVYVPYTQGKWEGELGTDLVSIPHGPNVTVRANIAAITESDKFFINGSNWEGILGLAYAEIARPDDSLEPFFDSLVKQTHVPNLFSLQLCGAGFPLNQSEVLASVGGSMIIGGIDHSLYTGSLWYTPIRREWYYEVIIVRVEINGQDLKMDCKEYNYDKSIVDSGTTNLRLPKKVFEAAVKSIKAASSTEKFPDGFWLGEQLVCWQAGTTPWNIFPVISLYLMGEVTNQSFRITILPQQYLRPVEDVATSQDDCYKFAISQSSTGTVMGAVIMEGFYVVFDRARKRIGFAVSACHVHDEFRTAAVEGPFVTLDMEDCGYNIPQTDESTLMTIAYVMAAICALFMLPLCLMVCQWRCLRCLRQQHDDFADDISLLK
Format: biochemical
`CCN1CCN(c2ccc(-c3csc(Nc4ccc5c(c4)OCO5)n3)cc2)CC1` [Compound 375] was tested, and the IC50 was 1100 to 5000 nM. For `CSc1cccc(Nc2nc(-c3ccc(N4CCN(C)CC4)cc3)cs2)c1` [Compound 372], the IC50 was 200 to 1000 nM. With `CN1CCN(c2ccc(-c3csc(Nc4ccc5c(cnn5C)c4)n3)cc2)CC1` [Compound 367] the IC50 was 1100 to 5000 nM.
